The source of these data is ChEMBL document CHEMBL5465560, “Selectivity Literature for EUbOPEN Chemogenomic Library” (2024).

Molecules are shown by their SMILES.

Experiment [1] has as its target T1, Ephrin type-A receptor 1 (Homo sapiens) (UniProt P21709).
T1 sequence (whole entry): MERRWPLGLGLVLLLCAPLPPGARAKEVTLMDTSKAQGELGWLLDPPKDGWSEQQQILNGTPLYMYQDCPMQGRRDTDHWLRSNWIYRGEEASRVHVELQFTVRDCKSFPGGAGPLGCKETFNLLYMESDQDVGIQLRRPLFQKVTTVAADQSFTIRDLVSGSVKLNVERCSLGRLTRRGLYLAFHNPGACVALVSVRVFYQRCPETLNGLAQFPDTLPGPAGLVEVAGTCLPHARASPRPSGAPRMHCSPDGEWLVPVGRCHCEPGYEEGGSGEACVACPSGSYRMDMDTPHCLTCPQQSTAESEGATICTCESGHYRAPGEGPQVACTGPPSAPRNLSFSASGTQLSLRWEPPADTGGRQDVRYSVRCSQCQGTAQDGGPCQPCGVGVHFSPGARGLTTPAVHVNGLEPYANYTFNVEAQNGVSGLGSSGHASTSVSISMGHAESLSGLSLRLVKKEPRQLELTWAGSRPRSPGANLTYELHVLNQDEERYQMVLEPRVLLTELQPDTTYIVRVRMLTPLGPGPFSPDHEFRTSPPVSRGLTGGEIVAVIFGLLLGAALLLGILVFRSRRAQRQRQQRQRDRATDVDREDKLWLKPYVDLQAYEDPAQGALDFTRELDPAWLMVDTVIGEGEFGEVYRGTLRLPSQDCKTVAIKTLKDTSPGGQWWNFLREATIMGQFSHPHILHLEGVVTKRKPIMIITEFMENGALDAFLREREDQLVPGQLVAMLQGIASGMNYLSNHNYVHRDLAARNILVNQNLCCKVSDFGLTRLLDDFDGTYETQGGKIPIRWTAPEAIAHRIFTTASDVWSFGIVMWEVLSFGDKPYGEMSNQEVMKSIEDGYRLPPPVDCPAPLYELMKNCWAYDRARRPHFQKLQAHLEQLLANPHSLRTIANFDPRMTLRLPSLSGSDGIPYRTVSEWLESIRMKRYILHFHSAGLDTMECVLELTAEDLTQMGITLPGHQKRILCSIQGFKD
The experiment in a line: Selectivity interaction (Kinase panel (Z-LYTE Assay)) EUB0001632a EPHA1. The settings on record: at 10 µM.

The target of experiment [2] is Glucocorticoid receptor (Homo sapiens) (UniProt P04150). The experiment in a line: Selectivity interaction (Panel of non-epigenetic targets (kinases, GPCRs, ion channels, and transporters, Eurofins) ) EUB0000271b NR3C1. The conditions noted are these: at 1 µM.
Experiment [3] deals with Mitogen-activated protein kinase kinase kinase kinase 4 (Homo sapiens, UniProt O95819). The experiment in a line: Selectivity interaction (KinomeScan (DiscoverX)) EUB0000666a MAP4K4. The settings on record: at 10 µM.
Experiment [4] concerns the target T2, Serine/threonine-protein kinase LATS1 (Homo sapiens) (UniProt O95835).
T2 sequence (whole entry): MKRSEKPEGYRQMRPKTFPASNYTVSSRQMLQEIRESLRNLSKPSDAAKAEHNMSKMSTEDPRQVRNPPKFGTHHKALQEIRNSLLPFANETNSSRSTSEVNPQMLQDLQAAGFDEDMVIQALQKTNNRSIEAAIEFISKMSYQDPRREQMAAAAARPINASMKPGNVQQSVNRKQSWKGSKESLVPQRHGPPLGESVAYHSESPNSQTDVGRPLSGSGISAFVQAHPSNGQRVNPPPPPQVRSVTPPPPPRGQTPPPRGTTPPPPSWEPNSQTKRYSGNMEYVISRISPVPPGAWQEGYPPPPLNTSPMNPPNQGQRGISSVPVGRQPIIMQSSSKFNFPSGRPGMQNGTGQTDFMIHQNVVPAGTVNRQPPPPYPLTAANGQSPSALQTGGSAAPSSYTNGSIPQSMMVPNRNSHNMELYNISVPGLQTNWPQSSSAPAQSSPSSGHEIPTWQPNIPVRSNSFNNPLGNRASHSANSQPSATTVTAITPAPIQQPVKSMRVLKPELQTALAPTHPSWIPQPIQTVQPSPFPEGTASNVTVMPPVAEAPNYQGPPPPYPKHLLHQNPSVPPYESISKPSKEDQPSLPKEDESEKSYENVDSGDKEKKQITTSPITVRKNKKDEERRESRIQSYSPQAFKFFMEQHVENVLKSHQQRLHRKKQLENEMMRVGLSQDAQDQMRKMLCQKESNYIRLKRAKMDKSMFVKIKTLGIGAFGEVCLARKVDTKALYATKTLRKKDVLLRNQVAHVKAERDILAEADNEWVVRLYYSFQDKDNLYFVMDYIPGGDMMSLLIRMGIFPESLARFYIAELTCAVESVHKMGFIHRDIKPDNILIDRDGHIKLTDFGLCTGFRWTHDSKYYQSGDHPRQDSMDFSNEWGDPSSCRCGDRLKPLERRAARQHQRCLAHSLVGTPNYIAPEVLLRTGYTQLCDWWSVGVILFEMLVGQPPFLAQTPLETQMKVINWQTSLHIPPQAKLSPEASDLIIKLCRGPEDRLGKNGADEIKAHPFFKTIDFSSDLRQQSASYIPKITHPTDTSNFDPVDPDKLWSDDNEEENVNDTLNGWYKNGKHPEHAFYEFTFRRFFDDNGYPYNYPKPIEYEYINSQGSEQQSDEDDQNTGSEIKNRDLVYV
Briefly: Selectivity interaction (ActivX KiNativ screen (ex vivo kinase selectivity in human PBMCs)) EUB0001619a LATS1. The format is cell-based. The conditions noted are these: PBMC, at 1 µM.

In experiment [5] the target is Mitogen-activated protein kinase 11 (Homo sapiens) (UniProt Q15759). The experiment in a line: Selectivity interaction (Kinase screening (Upstate/Millipore)) EUB0000604a MAPK11.
In experiment [6] the target is Cyclin-dependent kinase 3 (Homo sapiens) (UniProt Q00526). Briefly: Selectivity interaction (KinomeScan (DiscoverX)) EUB0000618a CDK3. The conditions noted are these: at 10 µM.
Experiment [7] addresses MAP kinase-interacting serine/threonine-protein kinase 2 (Homo sapiens, UniProt Q9HBH9). Briefly: Selectivity interaction (Upstate Kinase Profiler service (Millipore)) EUB0000056c MKNK2. The conditions noted are these: at 1 µM.

Chain of MAP kinase-interacting serine/threonine-protein kinase 2 (Q9HBH9 whole entry, looked up): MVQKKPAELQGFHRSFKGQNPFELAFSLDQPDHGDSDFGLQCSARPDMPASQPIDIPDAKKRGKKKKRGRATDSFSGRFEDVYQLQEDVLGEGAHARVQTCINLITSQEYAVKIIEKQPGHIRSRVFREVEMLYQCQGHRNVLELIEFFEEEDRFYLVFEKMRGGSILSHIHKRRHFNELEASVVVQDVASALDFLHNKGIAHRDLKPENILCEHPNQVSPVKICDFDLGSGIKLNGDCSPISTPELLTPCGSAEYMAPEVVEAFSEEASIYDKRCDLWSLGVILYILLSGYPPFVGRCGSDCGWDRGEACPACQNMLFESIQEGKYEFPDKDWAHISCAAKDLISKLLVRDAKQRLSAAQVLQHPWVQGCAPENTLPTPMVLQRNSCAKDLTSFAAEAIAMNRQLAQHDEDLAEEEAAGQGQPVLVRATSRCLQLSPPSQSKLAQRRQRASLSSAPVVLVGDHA
Chain of Glucocorticoid receptor (Homo sapiens) (P04150 whole entry): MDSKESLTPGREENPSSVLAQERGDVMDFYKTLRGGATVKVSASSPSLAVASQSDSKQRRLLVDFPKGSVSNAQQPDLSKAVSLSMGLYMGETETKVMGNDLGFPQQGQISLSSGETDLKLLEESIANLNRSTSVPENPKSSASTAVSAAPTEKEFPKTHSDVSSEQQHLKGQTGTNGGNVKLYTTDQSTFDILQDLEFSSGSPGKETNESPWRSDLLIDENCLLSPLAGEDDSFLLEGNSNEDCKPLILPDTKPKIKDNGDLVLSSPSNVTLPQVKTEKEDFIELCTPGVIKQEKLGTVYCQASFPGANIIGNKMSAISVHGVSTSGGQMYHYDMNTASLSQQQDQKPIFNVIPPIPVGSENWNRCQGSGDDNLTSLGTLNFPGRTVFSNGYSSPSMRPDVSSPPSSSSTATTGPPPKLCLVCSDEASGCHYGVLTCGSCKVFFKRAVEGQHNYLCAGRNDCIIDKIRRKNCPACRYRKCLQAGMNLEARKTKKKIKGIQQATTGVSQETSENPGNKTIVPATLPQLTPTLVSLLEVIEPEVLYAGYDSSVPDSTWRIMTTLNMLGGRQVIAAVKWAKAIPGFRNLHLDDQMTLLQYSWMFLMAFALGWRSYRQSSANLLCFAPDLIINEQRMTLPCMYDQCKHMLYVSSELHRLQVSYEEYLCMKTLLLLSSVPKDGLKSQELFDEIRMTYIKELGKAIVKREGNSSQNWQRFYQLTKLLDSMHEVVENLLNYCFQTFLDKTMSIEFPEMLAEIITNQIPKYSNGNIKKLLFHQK
Chain of Cyclin-dependent kinase 3 (Homo sapiens) (Q00526 whole entry, looked up): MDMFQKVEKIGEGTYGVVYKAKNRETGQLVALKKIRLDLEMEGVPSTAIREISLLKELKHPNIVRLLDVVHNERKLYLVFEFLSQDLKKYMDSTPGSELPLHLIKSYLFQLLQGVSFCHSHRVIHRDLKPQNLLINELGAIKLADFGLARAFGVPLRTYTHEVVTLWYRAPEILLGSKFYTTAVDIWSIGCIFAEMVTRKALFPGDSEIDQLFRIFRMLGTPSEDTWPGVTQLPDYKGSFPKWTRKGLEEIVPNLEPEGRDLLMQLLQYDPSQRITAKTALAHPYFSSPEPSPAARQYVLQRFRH
Chain of Mitogen-activated protein kinase kinase kinase kinase 4 (O95819 2-1239 limits assumed): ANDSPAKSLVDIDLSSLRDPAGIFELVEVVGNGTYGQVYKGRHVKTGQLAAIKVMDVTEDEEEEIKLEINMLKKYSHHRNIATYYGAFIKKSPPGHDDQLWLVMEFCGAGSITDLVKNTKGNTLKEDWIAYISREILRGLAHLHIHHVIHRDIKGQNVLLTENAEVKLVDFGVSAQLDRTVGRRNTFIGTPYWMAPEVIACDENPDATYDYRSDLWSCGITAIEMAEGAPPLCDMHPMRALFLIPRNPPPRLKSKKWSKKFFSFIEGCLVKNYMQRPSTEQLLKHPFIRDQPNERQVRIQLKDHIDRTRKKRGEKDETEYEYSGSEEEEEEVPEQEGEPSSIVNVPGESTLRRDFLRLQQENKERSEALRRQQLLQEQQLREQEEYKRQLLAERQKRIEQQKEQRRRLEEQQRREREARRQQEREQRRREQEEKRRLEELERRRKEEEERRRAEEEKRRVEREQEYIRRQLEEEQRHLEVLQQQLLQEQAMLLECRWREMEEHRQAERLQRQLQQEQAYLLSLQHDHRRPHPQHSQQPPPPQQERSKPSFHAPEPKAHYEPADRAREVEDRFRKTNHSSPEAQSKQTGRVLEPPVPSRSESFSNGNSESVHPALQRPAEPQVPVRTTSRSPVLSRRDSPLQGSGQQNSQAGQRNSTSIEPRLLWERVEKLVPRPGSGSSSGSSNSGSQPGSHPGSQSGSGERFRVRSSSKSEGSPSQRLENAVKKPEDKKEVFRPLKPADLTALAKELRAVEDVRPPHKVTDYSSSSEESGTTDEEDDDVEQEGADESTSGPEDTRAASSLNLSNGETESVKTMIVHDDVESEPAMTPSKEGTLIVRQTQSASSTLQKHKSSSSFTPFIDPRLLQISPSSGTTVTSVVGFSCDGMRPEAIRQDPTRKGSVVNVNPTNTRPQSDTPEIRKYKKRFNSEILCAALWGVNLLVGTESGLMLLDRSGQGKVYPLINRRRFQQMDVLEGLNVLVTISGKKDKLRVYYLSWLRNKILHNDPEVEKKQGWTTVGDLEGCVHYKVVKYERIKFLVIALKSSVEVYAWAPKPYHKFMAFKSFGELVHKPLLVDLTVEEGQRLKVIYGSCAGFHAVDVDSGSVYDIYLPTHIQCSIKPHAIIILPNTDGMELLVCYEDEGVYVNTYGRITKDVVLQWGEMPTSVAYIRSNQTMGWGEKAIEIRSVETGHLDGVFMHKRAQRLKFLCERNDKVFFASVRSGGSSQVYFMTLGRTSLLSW
Chain of Mitogen-activated protein kinase 11 (Homo sapiens) (Q15759 whole entry): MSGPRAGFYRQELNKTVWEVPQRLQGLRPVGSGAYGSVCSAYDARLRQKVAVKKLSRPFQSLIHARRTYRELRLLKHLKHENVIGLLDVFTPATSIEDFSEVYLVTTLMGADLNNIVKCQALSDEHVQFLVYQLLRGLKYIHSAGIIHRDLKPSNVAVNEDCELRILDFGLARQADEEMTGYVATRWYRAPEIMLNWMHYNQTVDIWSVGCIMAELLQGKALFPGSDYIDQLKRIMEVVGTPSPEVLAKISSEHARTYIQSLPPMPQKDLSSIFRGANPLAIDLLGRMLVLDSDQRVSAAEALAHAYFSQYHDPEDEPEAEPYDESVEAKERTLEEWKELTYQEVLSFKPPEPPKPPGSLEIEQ

In experiment [1], `Cn1cc(-n2cnc3c(NCc4nc5cc(Cl)c(Cl)cc5[nH]4)nc(N4CCOCC4)nc32)cn1` displayed a % of control of 2.3%. Regarding `Cc1cc(C)cc([C@@H]2c3cc(C)ccc3NC(=O)CN2C(=O)c2ccc(Br)s2)c1`, the % of inhibition in experiment [2] was 15%.

`O=C(NOC[C@H](O)CO)c1ccc(F)c(F)c1Nc1ccc(I)cc1F` came in with a % of control in experiment [3] of 69%.

`N#Cc1cccc(-c2c[nH]c3ncnc(N4CCOCC4)c23)c1`: in experiment [4], the % of inhibition is 5%. On to `Cc1cnc(Nc2ccc(F)cc2Cl)nc1-c1c[nH]c(C(=O)N[C@H](CO)c2cccc(Cl)c2)c1`, for which the % of inhibition in experiment [5] came out at 25%. For the compound `O[C@H]1CC[C@H](Nc2ncc3nc(Nc4c(F)cc(F)cc4F)n([C@H]4CCOC4)c3n2)CC1`, the % of control in experiment [6] was found to be 100%. As to `Cc1ccc(-c2ccc3c(ccc4sc5c(c43)NC[C@@H](C)NC5=O)n2)cn1`, in experiment [7], the % of inhibition worked out at 85%.
